Experimental data published in paper PMC5407577, “Functional and genetic evidence that nucleoside transport is highly conserved in Leishmania species: Implications for pyrimidine-based chemotherapy” (International Journal for Parasitology: Drugs and Drug …, 2017).
Like-named read-outs stand apart in the source and are kept apart here.

How the values were obtained:
LmajNT1 [1] = test: [3H]-uridine uptake by L. major promastigotes, low-affinity component; type: cell-based, Leishmania major; details: inhibition of 0.25 μM [3H]-uridine uptake
Procedure: (§1) Using the standard uptake technique as described for T. brucei and Leishmania species ([Wallace et al., 2002], [Al-Salabi and De Koning, 2005], [Gudin et al., 2006]), the dose- or time-dependent uptake of radiolabeled permeants was investigated.
(§2) Briefly, cells in the mid-to-late logarithmic stage of growth were harvested by centrifugation for 10 min at 1500×g. The cells were washed twice with transport assay buffer (AB: 33 mM HEPES, 98 mM NaCl, 4.6 mM KCl, 0.55 mM CaCl2, 0.07 mM MgSO4, 5.8 mM NaH2PO4, 0.3 mM MgCl2, 23 mM NaHCO3, 14 mM glucose, pH 7.3), resuspended at a density of 10^8 cells ml^−1 in AB, and left for 20–30 min at room temperature to recover from centrifugation stress. One hundred microliters of cell suspension was incubated at ambient temperature for a predetermined time with 100 μl radiolabeled test compound, in the presence or absence of unlabeled substrate or other competitive inhibitors. The incubation was terminated by the addition of ice-cold stop solution (AB containing saturating levels, usually 10 mM, of unlabeled permeant) and centrifugation through oil for 1 min at 13,000 × g. […] Radioactivity was determined by liquid scintillation counting in a Beckman LS6000 TA scintillation counter. Saturation data, inhibition data, and time courses were plotted to equations for linear or non-linear regression (hyperbolic or sigmoid curves), as appropriate. All experiments were performed in triplicate and on at least three independent occasions.

LmexNT1 [2] = test: [3H]-adenosine uptake by L. mexicana promastigotes; type: cell-based, Leishmania mexicana
From the text: Using the standard uptake technique as described for T. brucei and Leishmania species ([Wallace et al., 2002], [Al-Salabi and De Koning, 2005], [Gudin et al., 2006]), the dose- or time-dependent uptake of radiolabeled permeants was investigated. The following radiolabels and specific activities were used: [^3H]-thymidine (Perkin Elmer; 56.6 Ci/mmol); [^3H]-adenosine (American Radiolabeled Chemicals UK; 40 Ci/mmol); [^3H]-uridine (American Radiolabeled Chemicals UK; 30 Ci/mmol); [^3H]-uracil (Perkin Elmer; 24.8 Ci/mmol); [^3H]-inosine (American Radiolabeled Chemicals UK; 20 Ci/mmol); [^3H]-5-fluorouracil (Moravek; 20 Ci/mmol).
as §2
We next investigated the transport of [^3H]-adenosine in L. mexicana promastigotes, which according to the efficient inhibition of [^3H]-thymidine by adenosine, should be taken up with high affinity.

L. major promastigotes = test: total [3H]-uridine uptake by L. major promastigotes; type: cell-based, Leishmania major; details: Leishmania major
Procedure: as §1, §2

LmexNT1 [3] = type: cell-based, Leishmania mexicana; details: inhibition of 0.25 μM [3H]-uridine uptake in the presence of 1 mM uracil
Procedure: as §1, §2

LmexUU1 = type: cell-based, Leishmania mexicana; details: inhibition of [3H]-uracil uptake, 4 min
Procedure: as §1, §2

LmajUUT1 = test: [3H]-uridine uptake by L. major promastigotes, high-affinity uracil-sensitive component; type: cell-based, Leishmania major; details: inhibition of 0.25 μM [3H]-uridine uptake
Procedure: as §1, §2

LmajNT1 [4] = test: [3H]-thymidine uptake by L. major promastigotes; type: cell-based, Leishmania major; details: inhibition of 0.25 μM [3H]-thymidine uptake (total LmajNT1.1 + LmajNT1.2), 5 min
Procedure: as §1, §2
Subsequent experiments were performed with a 5 min incubation time.

LmajNT2 = test: [3H]-inosine transport by T. brucei B48 cells expressing LmajNT2; type: cell-based, Leishmania major
Procedure: (§3) Plasmid construction and transfection was performed according to [Munday et al. (2013)]. The nucleoside transporter genes were isolated from L. mexicana and L. major. […] The primers used in this study (Table S2) were designed to flank the gene of interest, one complementary to the sequence upstream of the 5′ end and the other complementary to the sequence downstream of the 3′ end. All of the nucleoside transporters genes were PCR-amplified from genomic DNA of each strain using the high-fidelity proof-reading polymerase Phusion (New England Biolabs) and cloned into the pGEMTeasy (Promega) vector prior to Sanger sequencing (Source BioScience, Glasgow, UK). […] After confirming the identity of each gene, the nucleoside transporter genes (LmajNT1A, LmajNT1B, LmajNT2, LmexNT1A, LmexNT1B, and LmexNT2) were ligated into the expression vector pHD1336 ([Biebinger et al., 1997]) and then were linearized with NotI digestion. All genes were verified by Sanger sequencing, prior to transfection into T. b. brucei clone B48. B48 parasites (1 × 10^7 cells) were washed into Human T Cell buffer for transfection using the desired cassette with an Amaxa Nucleofector using program X-001. Cells were transferred into pre-warmed HMI-9 medium and allowed to recover for 8–16 h at 37 °C and 5% CO2. Following recovery, transfectants were grown and cloned in selective medium containing 5 μg ml^−1 blasticidin S using limiting dilution.
as §1
(§4) Briefly, cells in the mid-to-late logarithmic stage of growth were harvested by centrifugation for 10 min at 1500×g. […] Radioactivity was determined by liquid scintillation counting in a Beckman LS6000 TA scintillation counter. […]

T. b. brucei strain B48 [5] = test: microbe, parasite or virus in culture; type: cell-based; details: Trypanosoma brucei, read-out: inhibition of 0.5 μM [3H]-uridine uptake, 250 μM inhibitor
Procedure: as §1
as §2, with “All experiments were performed in triplicate and on at least three independent occasions.” left out

LmexNT2 = test: [3H]-inosine transport by T. brucei B48 cells expressing LmexNT2; type: cell-based, Leishmania mexicana
Procedure: as §3, with “Cells were transferred into pre-warmed HMI-9 medium and allowed to recover for 8–16 h at 37 °C and 5% CO2. Following recovery, transfectants were grown and cloned in selective medium containing 5 μg ml^−1 blasticidin S using limiting dilution.” left out
as §4

T. b. brucei strain B48 [6] = test: [3H]-inosine uptake in non-transfected T. brucei B48; type: cell-based, Trypanosoma brucei brucei
Procedure: as §1, §2

LmexNT1 [7] = type: cell-based, Leishmania mexicana; details: inhibition of 1 μM [3H]-thymidine uptake, 20 s
Procedure: as §1, §2
L. donovani is known to express one pyrimidine nucleoside transporter, LdNT1, which also transports adenosine ([Vasudevan et al., 1998], [De Koning et al., 2005]). In order to investigate whether this model held true for L. mexicana, the uptake of [^3H]-thymidine was studied. […] Care was taken throughout this study that whenever inhibition constants (Ki) or Michaelis-Menten constants (Km) were determined the conditions used had been verified to be well within the linear range of uptake.

[8] = inhibition of 0.05 μM [3H]-adenosine uptake, read-out: Ki
[9] = 50 nM [3H]-inosine + 250 μM adenosine

Nc1ncnc2[nH]cnc12 [adenine]
Ki (LmajNT1 [1]): > 1000 µM | Ki (LmexNT1 [2]; [8]): > 1000 µM | inhibition at 0.25 µM (L. major promastigotes; 3 h, read-out: partial (maximal) inhibition of 0.25 μM [3H]-uridine transport): 62.7 ± 1.7% | Ki (LmexNT1 [3]): > 1000 µM | Ki (LmexUU1): 288 ± 67 µM | Ki (LmajUUT1): 5.14 ± 2.25 µM | Ki (LmajNT1 [4]): > 1000 µM

O=c1[nH]cnc2c1ncn2[C@@H]1O[C@H](CO)[C@@H](O)[C@H]1O [inosine]
Ki (LmajNT1 [1]): > 1000 µM | uptake rate in the presence of adenosine (LmajNT2; [9]): 0.0023 ± 0.0001 pmol(10^7 cells)^−1s^−1 | inhibition of 50 nM [3H]-inosine transport (LmajNT2; 1 mM inosine): 99.8% | Ki (LmexNT1 [2]; [8]): 1630 ± 134 µM | Ki (LmexNT1 [2]; inhibition of [3H]-adenosine uptake, read-out: affinity for inhibition of adenosine transport (Ki)): 1600 ± 100 µM | inhibition at 100 µM (L. major promastigotes; 20 min, read-out: inhibition of 0.25 μM uridine transport in time course over 20 min, 100 μM inhibitor, n = 2): 83.5% | inhibition at 100 µM (L. major promastigotes; at 100 μM inhibitor, read-out: inhibition of 0.25 μM [3H]-uridine transport): 70.8 ± 4.5% | inhibition at 250 µM (T. b. brucei strain B48 [5]): 24.3% | rate of transport in the presence of adenosine (LmexNT2; [9]): 0.0023 ± 0.0003 pmol(10^7 cells)^−1s^−1 | inhibition of 50 nM [3H]-inosine transport (LmexNT2; 1 mM inosine): 99.9% | rate of uptake (T. b. brucei strain B48 [6]; 50 nM [3H]-inosine): 0.0049 ± 0.0002 pmol(10^7 cells)s^−1 | inhibition of 50 nM [3H]-inosine transport (T. b. brucei strain B48 [6]; 250 μM adenosine or 1 mM unlabeled inosine (Fig. 7B)): fully inhibited | Ki (LmexNT1 [7]): 640 ± 34 µM | Ki (LmexNT1 [3]): 1010 ± 190 µM | Ki (LmajUUT1): 0.5 ± 0.16 µM | Ki (LmajNT1 [4]): 1990 ± 3050 µM
